{
  "source": "patent US10463670B2",
  "about": "“Use of non-peptide NK1 antagonists in a predetermined dose for the treatment of cancer” (SERVICIO ANDALUZ DE SALUD, priority 2013, dated 2019)",
  "system": "Human fibrosarcoma HT-1080",
  "test": "MTS cell proliferation, nanomolar antagonist, HT-1080",
  "assay_type": "cell-based",
  "conditions": "Aprepitant 1, 5 and 7 nM, vs cells grown in the absence of antagonist, time dependant",
  "method": "Cell cultures of various commercial tumour cell lines stated in table 13 were used. [table] […] The number of cells was quantified using a Coulter counter. […] The culture plates were grown in the presence of increasing concentrations of non-peptide NK1 receptor antagonists. To obtain the staining in the proliferation assays, 20 μl of MTS were added to each one of the wells of the cell culture plates 90 minutes before reading the samples in a multiscan spectrophotometer (TECAN Spectra classic, Barcelona, Spain) at 492 nm (assay wavelength) and 690 nm (reference wavelength). The different doses were tested in duplicate and each experiment was performed in triplicate. The antagonist Aprepitant was used at the following concentrations: 1 nanomolar -nM-, 5 nanomolar -nM- and 7 nanomolar -nM-. […] As proliferation control, the cells were grown in the absence of said antagonist. This is expressed in FIGS. 1 to 10.",
  "data": [
    {"molecule": "C[C@@H](O[C@H]1OCCN(Cc2n[nH]c(=O)[nH]2)[C@H]1c1ccc(F)cc1)c1cc(C(F)(F)F)cc(C(F)(F)F)c1", "note": "[Aprepitant]", "values": [
      {"measurement": "Proliferation of tumour cells (MTS)", "result": "increase was observed of proliferation"}
    ]}
  ]
}
